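Dose response: 5 concentrations. Exposure: 48 h. Format: 96-well plates. Endpoint: linear interpolation; highest concentration if not reached. GI50 marks 50% less growth. TGI: total growth inhibition.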
Assays:
Experiment in all cases: DTP human tumour cell line panel, 48 h
TK-10 renal = system: TK-10 renal
RXF 393 renal = system: RXF 393 renal
IGROV1 ovarian = system: IGROV1 ovarian
RPMI-8226 leukemia = system: RPMI-8226 leukemia
UACC-257 melanoma = system: UACC-257 melanoma
NCI-H226 lung = system: NCI-H226 lung
NCI/ADR-RES ovarian = system: NCI/ADR-RES ovarian
T-47D breast = system: T-47D breast
DU-145 prostate = system: DU-145 prostate
HS 578T breast = system: HS 578T breast

| SMILES | TGI (TK-10 renal) [µM] | TGI (RXF 393 renal) [µM] | TGI (IGROV1 ovarian) [µM] | TGI (RPMI-8226 leukemia) [µM] | TGI (UACC-257 melanoma) [µM] | TGI (NCI-H226 lung) [µM] | TGI (NCI/ADR-RES ovarian) [µM] | TGI (T-47D breast) [µM] | TGI (DU-145 prostate) [µM] | TGI (HS 578T breast) [µM] | GI50 (TK-10 renal) [µM] | GI50 (NCI/ADR-RES ovarian) [µM] | GI50 (T-47D breast) [mM] | GI50 (IGROV1 ovarian) [µM] | GI50 (DU-145 prostate) [µM] | GI50 (RPMI-8226 leukemia) [µM] | GI50 (HS 578T breast) [µM] | GI50 (UACC-257 melanoma) [µM] | GI50 (NCI-H226 lung) [µM] | GI50 (RXF 393 renal) [µM] |
| --- | --- | --- | --- | --- | --- | --- | --- | --- | --- | --- | --- | --- | --- | --- | --- | --- | --- | --- | --- | --- |
| NNC(=O)/C(=C/c1ccc(Cl)c(Cl)c1)NC(=O)c1ccccc1 | > 100 | > 100 | > 100 | > 100 | > 100 | > 100 | – | – | – | – | – | – | – | – | – | – | – | – | – | – |
| CCNC(=O)CCN(C(=O)O)S(=O)(=O)c1ccc(NC(=O)c2ccccc2)cc1 | > 100 | – | > 100 | > 100 | > 100 | > 100 | – | – | – | – | – | – | – | – | – | – | – | – | – | – |
| c1ccc2c(c1)CCC/C2=N\OCC1CO1 (configuration not stated) | > 100 | 98.9 | > 100 | > 100 | > 100 | – | – | – | – | – | – | – | – | – | – | – | – | – | – | – |
| CC(=O)Nc1ccc(C(=O)NN2C(=O)C(Cl)C2c2ccc(Cl)cc2)cc1 (configuration not stated) | > 100 | – | > 100 | > 100 | > 100 | > 92.1 | > 100 | > 100 | > 100 | 41.6 | – | – | – | – | – | – | – | – | – | – |
| CC(=O)OCC1OC(N2C(=O)C(=O)c3cc(C)ccc32)C(OC(C)=O)C(OC(C)=O)C1OC(C)=O (configuration not stated) | > 100 | 90.7 | > 100 | 70.1 | > 100 | > 100 | – | – | – | – | – | – | – | – | – | – | – | – | – | – |
| O=C1OC(CC(=O)c2ccc(Cl)c(Cl)c2)C(Cl)=C1Cl (configuration not stated) | > 100 | > 100 | > 100 | > 100 | > 100 | > 100 | – | – | – | – | – | – | – | – | – | – | – | – | – | – |
| COc1ccccc1N1C(=O)/C(=C/c2ccc(N(CCC#N)CCC#N)cc2C)N=C1c1cc([N+](=O)[O-])ccc1Cl | > 100 | – | > 100 | > 100 | > 100 | > 100 | – | – | – | – | – | – | – | – | – | – | – | – | – | – |
| CC(C)(C#N)c1cc(Cn2cncn2)cc(C(C)(C)C#N)c1 | > 10000 | – | > 10000 | 698 | > 10000 | > 10000 | > 10000 | > 10000 | > 10000 | > 10000 | 564 | 477 | 6.76 | 1760 | > 10000 | 183 | 289 | > 10000 | 718 | – |
| COC(=O)C1C(C(=O)OC)C2(OC)c3ccccc3-c3ccccc3C12 (configuration not stated) | > 100 | > 100 | > 100 | 71.8 | > 100 | > 100 | – | – | – | – | – | – | – | – | – | – | – | – | – | – |
| COc1ccc(-c2onc(-c3ccc([N+](=O)[O-])cc3)c2C2=NCCN2)cc1 | – | > 100 | > 100 | > 100 | 52.1 | > 100 | – | – | – | – | – | – | – | – | – | – | – | – | – | – |
| O=[N+]([O-])c1cc(Cl)c(Cl)c([N+](=O)[O-])c1Cl | 2.99 | 3.25 | 3.02 | 2.61 | 3.08 | 7.16 | 3.75 | – | 2.99 | 7.47 | 1.53 | 1.91 | – | 1.42 | 1.63 | 0.422 | 2.35 | 1.56 | 2.61 | 1.82 |
| Cn1c([N+](=O)[O-])cnc1/C=C1\Oc2ccccc2C1=O | 7.77 | – | 5.87 | 5.31 | 2.84 | 4.91 | 4.45 | 68.8 | 1.15 | – | 1.29 | 0.392 | 0.0127 | 0.6 | 0.307 | 1.27 | 1.15 | 0.682 | 1.68 | – |
| O=C(/C=C/c1ccc(F)cc1)c1ccc(Cl)cc1Cl | > 100 | 93.4 | > 100 | 39.5 | > 100 | > 100 | > 100 | – | > 100 | > 100 | 86.8 | 38.4 | – | > 100 | 53.4 | 17.5 | 54.3 | 68.3 | > 100 | 30.5 |
| O=C1c2ccccc2-c2cccc3ccc(Cc4ccc5ccccc5c4)c1c23 | > 100 | > 100 | > 100 | > 100 | > 100 | – | – | – | – | – | – | – | – | – | – | – | – | – | – | – |
| CCOC(=O)C(N)C[S][Sn]([CH3])([CH3])[Cl] (configuration not stated) | > 100 | > 100 | > 100 | > 100 | > 100 | > 100 | – | – | – | – | > 100 | – | – | > 100 | – | > 84.9 | – | > 100 | > 100 | > 100 |
| O=S(=O)(N/N=C/c1ccc(/C=N/NS(=O)(=O)c2ccccc2)cc1)c1ccccc1 | > 100 | 77.4 | > 100 | > 100 | > 100 | > 100 | – | – | – | – | – | – | – | – | – | – | – | – | – | – |
| CCCCOC(=O)NC(=O)c1cn(CCCOC(=O)CCCCCCCCC(=O)OCCCn2cc(C(=O)NC(=O)OCCCC)c(=O)[nH]c2=O)c(=O)[nH]c1=O | > 100 | > 100 | > 100 | > 100 | > 100 | > 100 | – | – | – | – | – | – | – | – | – | – | – | – | – | – |
| O=[N+]([O-])c1cccc(C2N3CCCCC3[C@@H]3c4[nH]c5ccccc5c4CCN23)c1 (some centres not stated) | 35.4 | 18.8 | 39.2 | > 100 | 27 | – | – | – | – | – | – | – | – | – | – | – | – | – | – | – |
| CCN(CC)CCC(=O)NC1c2ccc(Cl)cc2Oc2c(C)cccc21 (configuration not stated) | 27.9 | – | 40 | 70.3 | 31.6 | – | 39 | 31.5 | 32.9 | – | – | – | – | – | – | – | – | – | – | – |
| CC(=O)c1cccc(N2COC(C)(C)c3nc4ccccc4n3C2)c1 | > 100 | > 100 | > 100 | > 100 | > 100 | > 100 | – | – | – | – | – | – | – | – | – | – | – | – | – | – |
| CC/C(C)=C1\CCC(CN2CCOCC2)C1=O (configuration not stated) | 28 | 22 | 38.1 | 15.9 | 31.5 | > 100 | – | – | – | – | – | – | – | – | – | – | – | – | – | – |

Reference: PubChem BioAssay (NCI)
